pIC50: −log10 of the molar value.
Columns and labels:
[1] = tested on: STAT5; assay: STAT5 function (test not described)
[2] = tested on: STAT5; assay: Immunoblot of STAT5 phosphorylation and nuclear localization in T47D cells after prolactin; format: cell-based; details: for phosphorylation and nuclear localization of STAT5: 1 hour pre-treatment, 15 minutes after prolactin, cellular fractionation (FIG. 3B)
Description: (§1) FIG. 3A-FIG. 3C is a series of photographs of blots and bar charts showing that fludrocortisone inhibits STAT5 transcriptional function without affecting its phosphorylation or genome binding. FIG. 3A is a photograph of a blot wherein T47D cells were pretreated with vehicle control or fludrocortisone for 1 hour after which prolactin was added. Cells were harvested at the indicated time point and immunoblotting was performed. FIG. 3B is a photograph of a blot wherein T47D cells were pretreated with vehicle, fludrocortisone, or Jak inhibitor 1 for 1 hour after which prolactin was added. Cells were collected 15 minutes after prolactin stimulation and cellular fractionation and immunoblotting was performed. FIG. 3C is a photograph of a blot wherein T47D cells were pretreated with vehicle (DMSO) or fludrocortisone for 1 hour, then left untreated or stimulated with prolactin. 30 minutes later, cells were harvested and ChIP was performed to analyze STAT5 and pol II binding to the CISH promoter region. Error bars represent mean±SD for two independent experiments.
Nuclear and cytoplasmic fractionation was performed using the Nuclear Extract Kit (Active Motif, Carlsbad, Calif.). Immunoblots were performed using antibodies recognizing STAT5 (sc-482), MCR (sc-11412) and RNA polymerase II (pol II) (sc-9001) (all from Santa Cruz Biotechnology, Santa Cruz Calif.) and tyrosine-phosphorylated STAT5 (9131L) (from Cell Signaling Technology, Danvers, Mass.).
Next, it was considered whether fludrocortisone was inhibiting STAT5 function by blocking a key step in its activation. To address this, the effect of fludrocortisone on the kinetics of STAT5 phosphorylation following prolactin stimulation was evaluated. […] It was then evaluated whether nuclear translocation of activated STAT5 was affected by fludrocortisone treatment. T47D cells were either untreated or pretreated with fludrocortisone or JAK inhibitor 1, then left unstimulated or treated with prolactin, after which nuclear and cytoplasmic fractions were separated and analyzed for phosphorylated STAT5. […]

[3] = tested on: STAT1; assay: STAT1-dependent luciferase reporter (STAT-luc/2FTGH cells); format: cell-based; details: concentrations up to 33 μM
Description: (§2) FIG. 1A is a bar chart wherein reporter cell lines were treated with the indicated doses of fludrocortisone for two hours, after which cytokines were added to activate the appropriate transcription factor. Luciferase activity was quantified by luminometry six hours later. FIG. 1B is a bar chart wherein T47D cells were transfected with one of two luciferase constructs regulated by a STAT5-dependent promoter (NCAM-luc or B-luc) together with a normalizing control, and the effect of fludrocortisone on prolactin-induced gene expression was determined. Jak inhibitor 1 (JAKinhib; 1 μM) was used as a positive control. Error bars represent mean±SD for two independent experiments. […] RNA was harvested 1.5 hours later, and expression of the indicated STAT5 target genes was measured using quantitative reverse transcription polymerase chain reaction (RT-PCR) and normalized to the expression of 18s. […]
(§3) T47D, ZR75 (American Type Culture Collection, Manassas Va.), and MDA-MB-468, were maintained in DMEM containing 10% FBS. […] STAT1, STAT3, STAT5 and NF-κB-dependent luciferase activities were measured in STAT-luc/2FTGH, STAT-luc/U3A, NCAM2-luc/T47D and NF-κB-luc/293 cells, respectively (Nelson et al., 2008 Blood 112, 5095-5102). Luciferase activity was quantified using the Bright-Glo Luciferase assay system (Promega, Madison, Wis.).

[4] = tested on: STAT3; assay: STAT3-dependent luciferase reporter (STAT-luc/U3A cells); format: cell-based; details: concentrations up to 33 μM
Description: as §2, §3

[5] = tested on: NF-κB; assay: NF-κB-dependent luciferase reporter (NF-κB-luc/293 cells); format: cell-based; details: concentrations up to 33 μM
Description: as §2, §3

[6] = tested on: MCR; assay: MCR-dependent luciferase reporter in T47D cells; format: cell-based; details: for activation of MCR, MCR-specific luciferase reporter: T47D cells (FIG. 2A)
Description: FIG. 2A-FIG. 2E is a series of bar graphs showing that the endogenous mineralocorticoid aldosterone inhibits STAT5 transcriptional function. FIG. 2A is a bar chart wherein T47D cells were transfected with an MCR-dependent luciferase reporter and a normalizing control, and normalized luciferase activity was determined after the indicated treatment. FIG. 2B is a bar chart wherein T47D cells transfected with an MCR-dependent luciferase reporter and a normalizing control were treated with the indicated dose of aldosterone, after which luciferase activity was determined. FIG. 2C is a bar chart wherein T47D-luc cells were pre-treated with the indicated concentration of aldosterone for 1 hour, then stimulated with prolactin (100 ng/ml) for 6 hours, after which luciferase activity was determined. FIG. 2D is a bar chart wherein T47D cells were pre-treated with vehicle control or aldosterone (0.01 μM) for 1 hour, after which prolactin (100 ng/ml) was added to induce STAT5 activation. RNA was harvested 1.5 hours later, and expression of STAT5 target genes was measured using quantitative RT-PCR and normalized to the expression of 18s RNA. FIG. 2E is a bar chart wherein T47D cells stably expressing a STAT5-dependent luciferase reporter gene were treated with 1 μM fludrocortisone at the indicated time points relative to prolactin stimulation. Luciferase activity was quantified by luminometry six hours following prolactin stimulation. Error bars represent mean±SD for triplicates.

[7] = tested on: STAT5 target genes AREG and CISH; assay: Expression of endogenous STAT5 target genes in breast cancer cell lines by quantitative RT-PCR; format: cell-based; details: 1 hour pre-treatment; for expression of endogenous STAT5 target genes AREG and CISH: 1 μM, prolactin 100 ng/ml
Description: (§4) FIG. 1A is a bar chart wherein reporter cell lines were treated with the indicated doses of fludrocortisone for two hours, after which cytokines were added to activate the appropriate transcription factor. Luciferase activity was quantified by luminometry six hours later. FIG. 1B is a bar chart wherein T47D cells were transfected with one of two luciferase constructs regulated by a STAT5-dependent promoter (NCAM-luc or B-luc) together with a normalizing control, and the effect of fludrocortisone on prolactin-induced gene expression was determined. Jak inhibitor 1 (JAKinhib; 1 μM) was used as a positive control. Error bars represent mean±SD for two independent experiments. FIG. 1C is a series of bar charts wherein the indicated breast cancer cell lines were pre-treated with vehicle (dimethylsulfoxide (DMSO)) or fludrocortisone (1 μM) for 1 hour, then left untreated or stimulated with prolactin (100 ng/ml) to induce STAT5 activation. RNA was harvested 1.5 hours later, and expression of the indicated STAT5 target genes was measured using quantitative reverse transcription polymerase chain reaction (RT-PCR) and normalized to the expression of 18s. Error bars represent mean±SD for triplicates.
FIG. 2A-FIG. 2E is a series of bar graphs showing that the endogenous mineralocorticoid aldosterone inhibits STAT5 transcriptional function. FIG. 2A is a bar chart wherein T47D cells were transfected with an MCR-dependent luciferase reporter and a normalizing control, and normalized luciferase activity was determined after the indicated treatment. FIG. 2B is a bar chart wherein T47D cells transfected with an MCR-dependent luciferase reporter and a normalizing control were treated with the indicated dose of aldosterone, after which luciferase activity was determined. FIG. 2C is a bar chart wherein T47D-luc cells were pre-treated with the indicated concentration of aldosterone for 1 hour, then stimulated with prolactin (100 ng/ml) for 6 hours, after which luciferase activity was determined. […] Luciferase activity was quantified by luminometry six hours following prolactin stimulation. […]

[8] = tested on: STAT5; assay: Dual luciferase assay, parental T47D cells transfected with NCAM-luc or B-luc; format: cell-based; details: prolactin-induced
Description: as §4, with “triplicates. […]” for “triplicates.”

[9] = tested on: STAT5 and RNA polymerase II binding to CISH promoter; assay: ChIP of STAT5 and pol II binding to the CISH promoter region in T47D cells; format: cell-based; details: 1 hour pre-treatment, 30 minutes after prolactin (FIG. 3C)
Description: as §1, with “FIG. 3C is a photograph of a blot wherein T47D cells were pretreated with vehicle (DMSO) or fludrocortisone for 1 hour, then left untreated or stimulated with prolactin. 30 minutes later, cells were harvested and ChIP was performed to analyze STAT5 and pol II binding to the CISH promoter region. Error bars represent mean±SD for two independent experiments.” left out
ChIP was performed as described (Nelson et al., 2004 J Biol Chem 279, 54724-54730). […] Quantitative PCR was performed in triplicate on ChIP product or input using SYBR Green PCR Master Mix (Applied Biosystems, Foster City, Calif.) and region-specific primers as follows: CISH, forward, 5′-CCCGCGGTTCTAGGAAGAC-3′ (SEQ ID NO: 1), reverse, 5′-CGAGCTGCTGCCTAATCCT-3′ (SEQ ID NO: 2); Rhodopsin, forward, 5′-[…]-3′ (SEQ ID NO: 3), reverse, 5′-[…]-3′ (SEQ ID NO: 4). Relative binding at the CISH promoter site was normalized to input and expressed as mean fold change relative to binding at the Rhodopsin site, which is a control DNA binding site known not to bind STAT5. […]

[10] = tested on: STAT5; assay: STAT5 activity in hematopoietic cells; format: cell-based
[11] = tested on: STAT5; assay: STAT5-dependent luciferase reporter in T47D cells (NCAM2-luc/T47D), prolactin-stimulated; format: cell-based
Description: as §4
FIG. 2A-FIG. 2E is a series of bar graphs showing that the endogenous mineralocorticoid aldosterone inhibits STAT5 transcriptional function. FIG. 2A is a bar chart wherein T47D cells were transfected with an MCR-dependent luciferase reporter and a normalizing control, and normalized luciferase activity was determined after the indicated treatment. FIG. 2B is a bar chart wherein T47D cells transfected with an MCR-dependent luciferase reporter and a normalizing control were treated with the indicated dose of aldosterone, after which luciferase activity was determined. FIG. 2C is a bar chart wherein T47D-luc cells were pre-treated with the indicated concentration of aldosterone for 1 hour, then stimulated with prolactin (100 ng/ml) for 6 hours, after which luciferase activity was determined. […] RNA was harvested 1.5 hours later, and expression of STAT5 target genes was measured using quantitative RT-PCR and normalized to the expression of 18s RNA. […] Luciferase activity was quantified by luminometry six hours following prolactin stimulation. […]
as §3, with “Wis.). […]” for “Wis.).”

[12] = T47D reporter cells, 1 μM (FIG. 2E)

SMILES: CC(=O)S[C@@H]1CC2=CC(=O)CC[C@]2(C)[C@H]2CC[C@@]3(C)[C@@H](CC[C@@]34CCC(=O)O4)[C@H]12 [spironolactone]
- STAT5 function [1]: inhibit STAT5 function

SMILES: CC(C)(C)c1nc2c3cc[nH]c(=O)c3c3cc(F)ccc3c2[nH]1 [JAK inhibitor 1]
- phosphorylation and nuclear localization of STAT5 [2]: complete inhibition

SMILES: C[C@]12CCC(=O)C=C1CC[C@H]1[C@@H]3CC[C@](O)(C(=O)CO)[C@@]3(C)C[C@H](O)[C@@]12F [fludrocortisone, 9α-fluoro-11β,17α,21-trihydroxypregn-4-ene-3,20-dione]
- effect on STAT1-dependent luciferase expression [3]: essentially no effect
- effect on STAT3-dependent luciferase expression [4]: essentially no effect
- dynamics of STAT5 activation (phosphorylation kinetics) following prolactin ([2]; 1 hour pre-treatment (FIG. 3A)): no difference
- phosphorylation and nuclear localization of STAT5 [2]: no effect
- effect on NF-κB-dependent luciferase expression [5]: essentially no effect
- activation of MCR, MCR-specific luciferase reporter [6]: activate MCR
- expression of endogenous STAT5 target genes AREG and CISH ([7]; T47D cells): effectively inhibits
- expression of endogenous STAT5 target genes AREG and CISH ([7]; ZR75 cells): effectively inhibits
- STAT5-dependent luciferase activity, B-luc (BCL6) promoter [8]: reduced STAT5-dependent luciferase activity
- STAT5-dependent luciferase activity, NCAM-luc promoter [8]: reduced STAT5-dependent luciferase activity
- STAT5 binding to CISH regulatory site (ChIP) [9]: no effect
- prolactin-induced recruitment of RNA polymerase II (pol II) to CISH promoter site (ChIP) [9]: did inhibit
- induced or constitutive STAT5 activity [10]: does not appear to inhibit
- pIC50 ([11]; Homo sapiens, T47D cells stably expressing STAT5-dependent luciferase reporter, prolactin 100 ng/ml, read-out: IC50, inhibition of STAT5-dependent luciferase activity): ~7.00
- prolactin-stimulated STAT5 luciferase activity, compound added after prolactin [11, 12]: some inhibitory effect
- prolactin-stimulated STAT5 luciferase activity, compound added simultaneously with prolactin [11, 12]: still effectively inhibit

SMILES: C[C@]12CCC(=O)C=C1CC[C@@H]1[C@@H]2[C@@H](O)C[C@]2(C=O)[C@@H](C(=O)CO)CC[C@@H]12 [aldosterone]
- activation of MCR, MCR-specific luciferase reporter [6]: activate MCR
- dose dependence of MCR activation, MCR-dependent luciferase reporter ([6]; T47D cells, indicated doses (FIG. 2B)): activates MCR in a dose-dependent manner
- expression of endogenous STAT5 target genes ([7]; T47D cells, 0.01 μM, prolactin 100 ng/ml (FIG. 2D)): inhibited
- inhibition of STAT5-dependent reporter gene, dose response ([11]; T47D-luc cells, 1 hour pre-treatment, prolactin 100 ng/ml for 6 hours (FIG. 2C)): dose-dependent inhibition
